Reference: patent publication US8252935B2, “Piperidinyl and piperazinyl modulators of γ-secretase” (Janssen Pharmaceutica N.V., priority 2007, dated 2012)

Biological target: γ-secretase (Homo sapiens, UniProt P49768)
Assay: Screening for γ-secretase-modulating activity in SKNBE2 cells carrying APP 695 wild type (assay of Citron et al 1997)
Format: cell-based
Details: SKNBE2, @ 1 uM; SKNBE2 cells carrying the APP 695 wild type
Protocol: Screening was carried out using SKNBE2 cells carrying the APP 695—wild type, grown in DMEM/NUT-mix F12 (HAM) provided by Gibco (cat no. 31330-38) containing 5% Serum/Fe supplemented with 1% non-essential amino acids. Cells were grown to near confluency. The screening was performed using the assay as described in Citron et al (1997) Nature Medicine 3: 67.

inhibition at 1 µM [%]	Compound
48	COc1ccc(CN2CCCC(c3cc(-c4ccc(C(F)(F)F)cc4)cc(C(CC(C)C)C(=O)O)c3)C2)cc1C(F)(F)F (stereo not shown) [Example 51, 2-{5-[1-(4-Methoxy-3-trifluoromethyl-benzyl)-piperidin-3-yl]-4′-trifluoromethyl-biphenyl-3-yl}-4-methyl-pentanoic acid]
8	CC(C)/C=C/CN1CCC(c2cc(-c3ccc(C(F)(F)F)cc3)cc(C(CC(C)C)C(=O)O)c2)CC1 (stereo not shown) [Example 69, 4-Methyl-2-{5-[1-(4-methyl-pent-2-enyl)-piperidin-4-yl]-4′-trifluoromethyl-biphenyl-3-yl}-pentanoic acid]
52	COCCCC1CCCCN1c1cc(-c2ccc(C(F)(F)F)cc2)cc([C@@H](CC(C)C)C(=O)O)c1 (stereo partly drawn) [Example 60, (R)-2-{5-[2-(3-Methoxy-propyl)-piperidin-1-yl]-4′-trifluoromethyl-biphenyl-3-yl}-4-methyl-pentanoic acid]
22	CCC(CC)N1CCCC(c2cc(-c3ccc(C(F)(F)F)cc3)cc(C(CC(C)C)C(=O)O)c2)C1 (stereo not shown) [Example 33, 2-{5-[1-(1-Ethyl-propyl)-piperidin-3-yl]-4′-trifluoromethyl-biphenyl-3-yl}-4-methyl-pentanoic acid]
23	CN1C(c2cc(CC(=O)O)cc(-c3ccc(C(F)(F)F)cc3)c2)CCCC1C(F)(F)F (stereo not shown) [Example 11, [5-(1-Methyl-6-trifluoromethyl-piperidin-2-yl)-4′-trifluoromethyl-biphenyl-3-yl]-acetic acid]
0	CCN1CCCC(c2cc(-c3ccc(C(F)(F)F)cc3)cc(C(CC(C)C)C(=O)O)c2)C1 (stereo not shown) [Example 66, 2-[5-(1-Ethyl-piperidin-3-yl)-4′-trifluoromethyl-biphenyl-3-yl]-4-methyl-pentanoic acid]
5	CC(C)CC(C(=O)O)c1cc(-c2ccc(C(F)(F)F)cc2)cc(N2CCNCC2)c1 (stereo not shown) [Example 82, 4-Methyl-2-(5-piperazin-1-yl-4′-trifluoromethyl-biphenyl-3-yl)-pentanoic acid]
9	CC(C)CC(C(=O)O)c1cc(-c2ccc(C(F)(F)F)cc2)cc(C2CC[N+](C)(C)CC2)c1 (stereo not shown) [Example 73, 2-[5-(1,1-Dimethyl-piperidin-4-yl)-4′-trifluoromethyl-biphenyl-3-yl]-4-methyl-pentanoic acid]
70	COc1ccc(CN2C(c3cc(-c4ccc(C(F)(F)F)cc4)cc(C(CC(C)C)C(=O)O)c3)CCCC2C(F)(F)F)cc1 (stereo not shown) [Example 7, 2-{5-[1-(4-Methoxy-benzyl)-6-trifluoromethyl-piperidin-2-yl]-4′-trifluoromethyl-biphenyl-3-yl}-4-methyl-pentanoic acid]
36	CC(C)CCCN1CCC(c2cc(-c3ccc(C(F)(F)F)cc3)cc(C(CC(C)C)C(=O)O)c2)CC1 (stereo not shown) [Example 77, 4-Methyl-2-{5-[1-(4-methyl-pentyl)-piperidin-4-yl]-4′-trifluoromethyl-biphenyl-3-yl}-pentanoic acid]
54	CC(C)CC(C(=O)O)c1cc(-c2ccc(C(F)(F)F)cc2)cc(C2CCCN(Cc3ccc4nnsc4c3)C2)c1 (stereo not shown) [Example 49, 2-[5-(1-Benzo[1,2,3]thiadiazol-6-ylmethyl-piperidin-3-yl)-4′-trifluoromethyl-biphenyl-3-yl]-4-methyl-pentanoic acid]
0	CC(C)CCN1C(c2cc(-c3ccc(C(F)(F)F)cc3)cc(C(F)(CC(C)C)C(=O)O)c2)CCCC1C(F)(F)F (stereo not shown) [Example 16, 2-Fluoro-4-methyl-2-{5-[1-(3-methyl-butyl)-6-trifluoromethyl-piperidin-2-yl]-4′-trifluoromethyl-biphenyl-3-yl}-pentanoic acid]
63	CC(C)CC(C(=O)O)c1cc(-c2ccc(C(F)(F)F)cc2)cc(N2CCN(c3ccc(C(F)(F)F)cc3)CC2)c1 (stereo not shown) [Example 81, 4-Methyl-2-{4′-trifluoromethyl-5-[4-(4-trifluoromethyl-phenyl)-piperazin-1-yl]-biphenyl-3-yl}-pentanoic acid]
23	CC(C)CC(C(=O)O)c1cc(-c2ccc(C(F)(F)F)cc2)cc(C2CCC(C(F)(F)F)N(Cc3ccncc3)C2)c1 (stereo not shown) [Example 25, 4-Methyl-2-[5-(1-pyridin-4-ylmethyl-6-trifluoromethyl-piperidin-3-yl)-4′-trifluoromethyl-biphenyl-3-yl]-pentanoic acid]
34	CC(C)CCN1CCCCC1c1cc(-c2ccc(C(F)(F)F)cc2)cc(C(CC(C)C)C(=O)O)c1 (stereo not shown) [Example 10, 4-Methyl-2-{5-[1-(3-methyl-butyl)-piperidin-2-yl]-4′-trifluoromethyl-biphenyl-3-yl}-pentanoic acid]
49	CC(C)CC(C(=O)O)c1cc(-c2ccc(C(F)(F)F)cc2)cc(C2CCCN(Cc3ccccc3)C2)c1 (stereo not shown) [Example 67, 2-[5-(1-Benzyl-piperidin-3-yl)-4′-trifluoromethyl-biphenyl-3-yl]-4-methyl-pentanoic acid]

inhibition at 1 µM [%]	Compound
23	CC(C)CC(C(=O)O)c1cc(-c2ccc(C(F)(F)F)cc2)cc(N2CCCCC2C)c1 (stereo not shown) [Example 3, 4-Methyl-2-[5-(2-methyl-piperidin-1-yl)-4′-trifluoromethyl-biphenyl-3-yl]-pentanoic acid]
35	CC(C)CC(C(=O)O)c1cc(-c2ccc(C(F)(F)F)cc2)cc(C2CCN(Cc3ccc(C(F)(F)F)cc3)CC2)c1 (stereo not shown) [Example 78, 4-Methyl-2-{4′-trifluoromethyl-5-[1-(4-trifluoromethyl-benzyl)-piperidin-4-yl]-biphenyl-3-yl}-pentanoic acid]
68	CC(C)CC(C(=O)O)c1cc(-c2ccc(C(F)(F)F)cc2)cc(C2CCC(C(F)(F)F)N(Cc3cccc(C(F)(F)F)c3)C2)c1 (stereo not shown) [Example 28, 4-Methyl-2-{4′-trifluoromethyl-5-[6-trifluoromethyl-1-(3-trifluoromethyl-benzyl)-piperidin-3-yl]-biphenyl-3-yl}-pentanoic acid]
46	CC(C)CC(C(=O)O)c1cc(-c2ccc(C(F)(F)F)cc2)cc(C2CCCN(Cc3ccc(-n4cccc4)cc3)C2)c1 (stereo not shown) [Example 44, 4-Methyl-2-{5-[1-(4-pyrrol-1-yl-benzyl)-piperidin-3-yl]-4′-trifluoromethyl-biphenyl-3-yl}-pentanoic acid]
63	CC(C)CC(C(=O)O)c1cc(-c2ccc(C(F)(F)F)cc2)cc(C2CCCN(S(=O)(=O)c3ccccc3C(F)(F)F)C2)c1 (stereo not shown) [Example 42, 4-Methyl-2-{4′-trifluoromethyl-5-[1-(2-trifluoromethyl-benzenesulfonyl)-piperidin-3-yl]-biphenyl-3-yl}-pentanoic acid]
44	Cc1ccccc1CC1CCCCN1c1cc(-c2ccc(C(F)(F)F)cc2)cc(C(CC(C)C)C(=O)O)c1 (stereo not shown) [Example 83, 4-Methyl-2-{5-[2-(2-methyl-benzyl)-piperidin-1-yl]-4′-trifluoromethyl-biphenyl-3-yl}-pentanoic acid]
4	CC(C)CC(C(=O)O)c1cc(-c2ccc(C(F)(F)F)cc2)cc(C2CCN(C3CCCCC3)CC2)c1 (stereo not shown) [Example 74, 2-[5-(1-Cyclohexyl-piperidin-4-yl)-4′-trifluoromethyl-biphenyl-3-yl]-4-methyl-pentanoic acid]
11	CC(C)CCN1CCC(c2cc(-c3ccc(C(F)(F)F)cc3)cc(C(CC(C)C)C(=O)O)c2)CC1 (stereo not shown) [Example 76, 4-Methyl-2-{5-[1-(3-methyl-butyl)-piperidin-4-yl]-4′-trifluoromethyl-biphenyl-3-yl}-pentanoic acid]
70	CC(C)CC(C(=O)O)c1cc(-c2ccc(C(F)(F)F)cc2)cc(C2CCCN(S(=O)(=O)c3cccc4cnccc34)C2)c1 (stereo not shown) [Example 41, 2-{5-[1-(Isoquinoline-5-sulfonyl)-piperidin-3-yl]-4′-trifluoromethyl-biphenyl-3-yl}-4-methyl-pentanoic acid]
40	CC(C)C[C@H](C(=O)O)c1cc(-c2ccc(C(F)(F)F)cc2)cc([C@H]2CC[C@@H](C(F)(F)F)NC2)c1 (single isomer, unassigned) [Example 36, 4-Methyl-2-[4′-trifluoromethyl-5-(6-trifluoromethyl-piperidin-3-yl)-biphenyl-3-yl]-pentanoic acid]
40	CC(C)CC(C(=O)O)c1cc(-c2ccc(C(F)(F)F)cc2)cc(C2CCCN(c3ccccc3)C2)c1 (stereo not shown) [Example 58, 4-Methyl-2-[5-(1-phenyl-piperidin-3-yl)-4′-trifluoromethyl-biphenyl-3-yl]-pentanoic acid]
57	CC(C)CC(C(=O)O)c1cc(-c2ccc(C(F)(F)F)cc2)cc(C2CCCN(Cc3cc(C(F)(F)F)cc(C(F)(F)F)c3)C2)c1 (stereo not shown) [Example 53, 2-{5-[1-(3,5-Bis-trifluoromethyl-benzyl)-piperidin-3-yl]-4′-trifluoromethyl-biphenyl-3-yl}-4-methyl-pentanoic acid]
37	CC(C)CC(C(=O)O)c1cc(-c2ccc(C(F)(F)F)cc2)cc(C2CCCN(c3ccc(C(F)(F)F)cc3)C2)c1 (stereo not shown) [Example 59, 4-Methyl-2-{4′-trifluoromethyl-5-[1-(4-trifluoromethyl-phenyl)-piperidin-3-yl]-biphenyl-3-yl}-pentanoic acid]
61	CC(C)CC(C(=O)O)c1cc(-c2ccc(C(F)(F)F)cc2)cc(C2CCCN(Cc3ccc(OC(F)(F)F)cc3)C2)c1 (stereo not shown) [Example 47, 4-Methyl-2-{5-[1-(4-trifluoromethoxy-benzyl)-piperidin-3-yl]-4′-trifluoromethyl-biphenyl-3-yl}-pentanoic acid]
48	CC(C)C[C@H](C(=O)O)c1cc(-c2ccc(C(F)(F)F)cc2)cc([C@H]2CCC[C@@H](C(F)(F)F)N2)c1 [Example 19, (S) 4-Methyl-2-[4′-trifluoromethyl-5-(6-trifluoromethyl-piperidin-2-yl)-biphenyl-3-yl]-pentanoic acid]
